Results: the supplement of paper PMC11061612

What was measured:
SIMA (Neuroblastoma) [1] = assay: Bliss excess, mean over the matrix (fraction); higher = more synergy
How it was run: (§1)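 Bliss excess equals the observed combination effect minus the expected value EA + EB − EA·EB, where EA and EB are the effects of each agent alone. Combination Emax is the second-highest inhibition within the matrix. Inhibition was scaled from CellTiter-Glo 2.0 luminescence, with 0 set by vehicle wells and 1 by blank wells, after 72 hours of two-drug dosing of cells plated in 1536-well plates.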

[2] = tested on: EN (Endometrial Carcinoma); assay: as above
How it was run: as §1

[3] = tested on: K5 (Thyroid Gland Carcinoma); assay: as above
How it was run: as §1

[4] = tested on: SW1271 (Small Cell Lung Carcinoma); assay: as above
How it was run: as §1

[5] = tested on: SW1116 (Colorectal Carcinoma); assay: as above
How it was run: as §1

NCI-H2795 (Mesothelioma) = assay: as above
How it was run: as §1

RH-18 (Rhabdomyosarcoma) [6] = assay: as above
How it was run: as §1

[7] = tested on: HO-1-u-1 (Oral Cavity Carcinoma); assay: as above
How it was run: as §1

NCI-H2461 (Mesothelioma) = assay: as above
How it was run: as §1

[8] = tested on: PCI-30 (Head and Neck Carcinoma); assay: as above
How it was run: as §1

SIMA (Neuroblastoma) [9] = assay: combination Emax (second highest fraction inhibited in the dose matrix, 72 h); higher = more inhibition; extreme values may be limits of the assay
How it was run: as §1

RH-18 (Rhabdomyosarcoma) [10] = assay: as above
How it was run: as §1

SMILES: COc1cccc(OCCCN)c1-c1cc(Nc2cnc(C#N)cn2)n[nH]1 [Prexasertib] + O=C(c1cc(Cc2n[nH]c(=O)c3ccccc23)ccc1F)N1CCN(C(=O)C2CC2)CC1 [Olaparib] (first compound max 1 µM, 7x7, partner max 10 µM)
- Bliss excess (SIMA (Neuroblastoma) [1]): -0.0728
- Bliss excess [2]: -0.0336
- Bliss excess [3]: -0.051
- Bliss excess [4]: -0.0602
- Bliss excess [5]: -0.0415
- Bliss excess (NCI-H2795 (Mesothelioma)): -0.024
- Bliss excess (RH-18 (Rhabdomyosarcoma) [6]): -0.0295
- Bliss excess [7]: -0.109
- Bliss excess (NCI-H2461 (Mesothelioma)): -0.0891
- Bliss excess [8]: -0.166
- combination Emax (SIMA (Neuroblastoma) [9]): 0.97
- combination Emax (RH-18 (Rhabdomyosarcoma) [10]): 0.327

SMILES: Cc1cc2ncnn2cc1Nc1ncc2c(n1)n(C1CCOCC1)c(=O)n2C [AZD7648] + O=C(c1cc(Cc2n[nH]c(=O)c3ccccc23)ccc1F)N1CCN(C(=O)C2CC2)CC1 [Olaparib] (first compound max 10 µM, 7x7, partner max 10 µM)
- Bliss excess (SIMA (Neuroblastoma) [1]): -0.02
- Bliss excess [2]: -0.0423
- Bliss excess [3]: -0.0159
- Bliss excess [4]: -0.0461
- Bliss excess [5]: -0.0421
- Bliss excess (NCI-H2795 (Mesothelioma)): -0.0183
- Bliss excess (RH-18 (Rhabdomyosarcoma) [6]): -0.0417
- Bliss excess [7]: -0.0481
- Bliss excess (NCI-H2461 (Mesothelioma)): -0.0601
- Bliss excess [8]: -0.0695
- combination Emax (SIMA (Neuroblastoma) [9]): 0.192
- combination Emax (RH-18 (Rhabdomyosarcoma) [10]): 0.182

SMILES: Cc1cc2ncnn2cc1Nc1ncc2c(n1)n(C1CCOCC1)c(=O)n2C [AZD7648] + C=CCn1c(=O)c2cnc(Nc3ccc(N4CCN(C)CC4)cc3)nc2n1-c1cccc(C(C)(C)O)n1 [AZD1775] (first compound max 10 µM, partner max 1 µM)
- Bliss excess (SIMA (Neuroblastoma) [1]): 0.0406
- Bliss excess [2]: -0.0608
- Bliss excess [3]: 0.0433
- Bliss excess [4]: -0.0199
- Bliss excess [5]: -0.0172
- Bliss excess (NCI-H2795 (Mesothelioma)): 0.056
- Bliss excess (RH-18 (Rhabdomyosarcoma) [6]): 0.0278
- Bliss excess [7]: 0.0946
- Bliss excess (NCI-H2461 (Mesothelioma)): -0.0524
- Bliss excess [8]: 0.0419
- combination Emax (SIMA (Neuroblastoma) [9]): 0.941
- combination Emax (RH-18 (Rhabdomyosarcoma) [10]): 0.426

SMILES: CN(C)CCCOc1ccc(-c2ccc3ncc4c(c3c2)n(C2CCOCC2)c(=O)n4C)cn1 [AZD0156] + C[C@@H]1COCCN1C2=NC(=NC(=C2)C3(CC3)[S@](=N)(=O)C)C4=C5C=CNC5=NC=C4 [AZD6738] (first compound max 1 µM, 7x7, partner max 10 µM)
- Bliss excess (SIMA (Neuroblastoma) [1]): 0.074
- Bliss excess [2]: -0.0073
- Bliss excess [3]: -0.0074
- Bliss excess [4]: 0.0015
- Bliss excess [5]: -0.034
- Bliss excess (NCI-H2795 (Mesothelioma)): -0.0643
- Bliss excess (RH-18 (Rhabdomyosarcoma) [6]): -0.0312
- Bliss excess [7]: 0.0189
- Bliss excess (NCI-H2461 (Mesothelioma)): -0.0664
- Bliss excess [8]: 0.0081
- combination Emax (SIMA (Neuroblastoma) [9]): 0.9
- combination Emax (RH-18 (Rhabdomyosarcoma) [10]): 0.343

SMILES: Cc1cc2ncnn2cc1Nc1ncc2c(n1)n(C1CCOCC1)c(=O)n2C [AZD7648] + C[C@@H]1COCCN1C2=NC(=NC(=C2)C3(CC3)[S@](=N)(=O)C)C4=C5C=CNC5=NC=C4 [AZD6738] (first compound max 10 µM, 7x7, partner max 10 µM)
- Bliss excess (SIMA (Neuroblastoma) [1]): 0.0326
- Bliss excess [2]: -0.0485
- Bliss excess [3]: 0.0129
- Bliss excess [4]: 0.0274
- Bliss excess [5]: 0.0285
- Bliss excess (NCI-H2795 (Mesothelioma)): 0.0603
- Bliss excess (RH-18 (Rhabdomyosarcoma) [6]): 0.0727
- Bliss excess [7]: -0.0014
- Bliss excess (NCI-H2461 (Mesothelioma)): -0.0188
- Bliss excess [8]: -0.0101
- combination Emax (SIMA (Neuroblastoma) [9]): 0.904
- combination Emax (RH-18 (Rhabdomyosarcoma) [10]): 0.365

SMILES: CCc1c2c(nc3ccc(O)cc13)-c1cc3c(c(=O)n1C2)COC(=O)[C@]3(O)CC [SN-38] + CN(C)CCCOc1ccc(-c2ccc3ncc4c(c3c2)n(C2CCOCC2)c(=O)n4C)cn1 [AZD0156] (first compound max 0.3 µM, 7x7, partner max 1 µM)
- Bliss excess (SIMA (Neuroblastoma) [1]): -0.0753
- Bliss excess [2]: -0.0346
- Bliss excess [3]: -0.0797
- Bliss excess [4]: 0.0025
- Bliss excess [5]: -0.0108
- Bliss excess (NCI-H2795 (Mesothelioma)): 0.0334
- Bliss excess (RH-18 (Rhabdomyosarcoma) [6]): -0.0477
- Bliss excess [7]: 0.0393
- Bliss excess (NCI-H2461 (Mesothelioma)): -0.0236
- Bliss excess [8]: -0.0044
- combination Emax (SIMA (Neuroblastoma) [9]): 0.907
- combination Emax (RH-18 (Rhabdomyosarcoma) [10]): 0.459

SMILES: CCN(CCO)CCCOc1ccc2c(Nc3cc(CC(=O)Nc4cccc(F)c4)[nH]n3)ncnc2c1 [AZD2811] + O=C(c1cc(Cc2n[nH]c(=O)c3ccccc23)ccc1F)N1CCN(C(=O)C2CC2)CC1 [Olaparib] (first compound max 1 µM, 7x7, partner max 10 µM)
- Bliss excess (SIMA (Neuroblastoma) [1]): 0.0206
- Bliss excess [2]: -0.0657
- Bliss excess [3]: 0.0162
- Bliss excess [4]: -0.0312
- Bliss excess [5]: -0.0008
- Bliss excess (NCI-H2795 (Mesothelioma)): 0.052
- Bliss excess (RH-18 (Rhabdomyosarcoma) [6]): 0.0097
- Bliss excess [7]: 0.0288
- Bliss excess (NCI-H2461 (Mesothelioma)): -0.0638
- Bliss excess [8]: -0.031
- combination Emax (SIMA (Neuroblastoma) [9]): 0.213
- combination Emax (RH-18 (Rhabdomyosarcoma) [10]): 0.257

SMILES: C=CCn1c(=O)c2cnc(Nc3ccc(N4CCN(C)CC4)cc3)nc2n1-c1cccc(C(C)(C)O)n1 [AZD1775] + O=C(c1cc(Cc2n[nH]c(=O)c3ccccc23)ccc1F)N1CCN(C(=O)C2CC2)CC1 [Olaparib] (first compound max 1 µM, partner max 10 µM)
- Bliss excess (SIMA (Neuroblastoma) [1]): 0.0028
- Bliss excess [2]: -0.0469
- Bliss excess [3]: -0.0175
- Bliss excess [4]: -0.0488
- Bliss excess [5]: -0.0069
- Bliss excess (NCI-H2795 (Mesothelioma)): -0.0182
- Bliss excess (RH-18 (Rhabdomyosarcoma) [6]): -0.0018
- Bliss excess [7]: -0.0521
- Bliss excess (NCI-H2461 (Mesothelioma)): -0.0561
- Bliss excess [8]: -0.0579
- combination Emax (SIMA (Neuroblastoma) [9]): 0.721
- combination Emax (RH-18 (Rhabdomyosarcoma) [10]): 0.401

SMILES: Cc1cc2ncnn2cc1Nc1ncc2c(n1)n(C1CCOCC1)c(=O)n2C [AZD7648] + CCN(CCO)CCCOc1ccc2c(Nc3cc(CC(=O)Nc4cccc(F)c4)[nH]n3)ncnc2c1 [AZD2811] (first compound max 10 µM, 7x7, partner max 1 µM)
- Bliss excess (SIMA (Neuroblastoma) [1]): 0.0728
- Bliss excess [2]: -0.0671
- Bliss excess [3]: 0.0013
- Bliss excess [4]: -0.0081
- Bliss excess [5]: 0.012
- Bliss excess (NCI-H2795 (Mesothelioma)): 0.009
- Bliss excess (RH-18 (Rhabdomyosarcoma) [6]): 0.0148
- Bliss excess [7]: 0.0258
- Bliss excess (NCI-H2461 (Mesothelioma)): -0.0105
- Bliss excess [8]: -0.0267
- combination Emax (SIMA (Neuroblastoma) [9]): 0.532
- combination Emax (RH-18 (Rhabdomyosarcoma) [10]): 0.333

SMILES: COc1cccc(OCCCN)c1-c1cc(Nc2cnc(C#N)cn2)n[nH]1 [Prexasertib] + Cc1cc2ncnn2cc1Nc1ncc2c(n1)n(C1CCOCC1)c(=O)n2C [AZD7648] (first compound max 1 µM, 7x7, partner max 10 µM)
- Bliss excess (SIMA (Neuroblastoma) [1]): -0.035
- Bliss excess [2]: -0.0753
- Bliss excess [3]: -0.0405
- Bliss excess [4]: -0.0014
- Bliss excess [5]: -0.0183
- Bliss excess (NCI-H2795 (Mesothelioma)): -0.0556
- Bliss excess (RH-18 (Rhabdomyosarcoma) [6]): 0.0455
- Bliss excess [7]: 0.0035
- Bliss excess (NCI-H2461 (Mesothelioma)): -0.0428
- Bliss excess [8]: -0.0227
- combination Emax (SIMA (Neuroblastoma) [9]): 0.992
- combination Emax (RH-18 (Rhabdomyosarcoma) [10]): 0.382
